For the assay, the system named is SN12C-CSCG and ACHN-CSCG xenograft tumors. In words: Subcutaneous xenograft tumor growth, parental tumors. Format: in vivo, SCID mice. As to conditions: 0.1 mg/kg CCI-779 daily. On the procedure: FIGS. 1A-1E. Effects of VHL knockdown on sensitivity to CCI-779. (a) Immunoblotting of lysates derived from shRNA and control (empty vector, V) in SN12C, using antibodies against VHL (both isoforms detected), HIF-1α, HIF-2α, GLUT-1, CA-IX and β-Actin (as a loading control). (b) SN12C-CSCG and SN12C-VHLshRNA cells (1×10^5) were cultured in 10% serum rich media, in the presence of vehicle, 1 or 10 nM of CCI-779 for 5 days. Cell growth was measured by cell counts (n=3). […] (c) SN12C-CSCG (C1) and SN12C-CSCG shVHL RNA (C2) cells were injected into SCID mice at a dose of 1×10^6 cells per mouse (n=30). […] Phosphorylated-S6 protein in SN12C-CSCG and SN12C-VHL shRNA xenograft tumors treated with vehicle or 0.1 mg/kg of CCI-779 was measured by immunoblot C3 and C4). […]
For in vitro experiments, cells (5×10^4) were plated and treated with 1 and 10 nM CCI-779 (kind gift of J. Gibbons, Wyeth) or vehicle (ethanol). On day 5-post treatment, cells were trypsinized, resuspended in DMEM with 10% FBS and counted using the VI CELL counter (Beckman Coulter), according to the manufacturer's instructions. […] In vivo tumorigenicity was measured by injection of 5×10^5 SN12C-CSCG, ACHN-CSCG, SN12C-CSCG-VHLshRNAi, ACHN-CSCG-VHLshRNAi, SN12C-CSCG-VHLshRNAi-pBABE, SN12C-CSCG-VHLshRNAi-pBABE-HA-HIF-2α (P405A; P531A) cells in 100 μl of Matrigel (Collaborative Biomedical) subcutaneously into the flanks of SCID mice. […]

`CO[C@H]1C[C@@H]2CC[C@@H](C)[C@@](O)(O2)C(=O)C(=O)N2CCCC[C@H]2C(=O)O[C@H]([C@H](C)C[C@@H]2CC[C@@H](OC(=O)C(C)(CO)CO)[C@H](OC)C2)CC(=O)[C@H](C)/C=C(\C)[C@@H](O)[C@@H](OC)C(=O)[C@H](C)C[C@H](C)/C=C/C=C/C=C/1C` [CCI-779]: the “growth of the parental tumors” value was “no effect”.

Source of the values: patent US9261498B2, “Biomarker for sensitivity to mTOR inhibitor therapy in kidney cancer” (The Regents of the University of California, priority 2005, dated 2016).
